Laboratory results from patent US8557823B2, “Family of PFKFB3 inhibitors with anti-neoplastic activities” (Advanced Cancer Therapeutics, LLC, priority 2007, dated 2013).

Experiments:
[1] = system: melanoma (CRL-11174) cells; test: In vitro growth inhibition, melanoma line; format: cell-based; conditions: Homo sapiens
Description: (§1) The K562, HL-60, MDA-MB231, and melanoma (CRL-11174) human cancer cell lines were purchased from ATCC (American Tissue Type Culture Collection, Manassas, Va., United States of America). HeLa, A549, Lewis Lung Carcinoma, MDA-MB231, and melanoma cells were grown in Dulbecco's Modified Eagle Medium (DMEM) (Hyclone, Logan, Utah, United States of America) supplemented with 10% fetal bovine serum (Hyclone, Logan, Utah, United States of America) and 50 μg/mL gentamicin sulfate (Invitrogen, Carlsbad, Calif., United States of America). The HL-60, K562, and Jurkat cell lines were grown in RPMI-1640 medium (Hyclone, Logan, Utah, United States of America) supplemented with 10% fetal bovine serum and 50 μg/mL gentamicin sulfate. […]
(§2) Cells were collected 48 hours post-treatment, and cell number and viability were determined by trypan blue exclusion. […]

HL-60 leukemia cells = test: In vitro growth inhibition, HL-60; format: cell-based, human; conditions: Homo sapiens, 50% of vehicle control cell growth
Description: as §1, §2

Jurkat leukemia cells = test: In vitro growth inhibition, Jurkat; format: cell-based; conditions: Homo sapiens, 50% of vehicle control cell growth
Description: as §1, §2

[2] = system: Jurkat cells expressing unaltered PFKFB3 levels; test: Growth inhibition of control Jurkat cells (empty vector, doxycycline); format: cell-based; conditions: Homo sapiens, 48 hours
Description: (§3) FIG. 6D is a bar graph showing the anti-proliferative effects of 3PO in Jurkat cells engineered to over-express PFKFB3 through doxycylin treatment utilizing the Tet-on system (+PFKFB3, striped bars). Twenty-four hours prior to 3PO treatment, 1 μg/mL of doxycyclin is incubated with Jurkat cells containing a PFKFB3-expressing vector in order to induce PFKFB3 protein levels. Control cells (−PFKFB3, solid bars) containing an empty vector were similarly treated with doxycyclin and served as background PFKFB3 expression. Both cell types were subsequently incubated with increasing concentrations of 3PO (1, 3, 10, or 33 μM) or vehicle (V), and viable cells were analyzed after 48 hours. The bars represent the mean±STD of triplicate values from a representative experiment.
All cell lines were plated at 1×10^5 cells/well in the appropriate medium. For suspension cells, increasing concentrations of 1 were added immediately to the medium, whereas, compound 1 treatment was initiated the following day for adherent cell lines. For dose-dependent studies, compound 1 was added in increasing concentrations for 36 hours. For time-dependent studies, 10 μM of compound 1 was added at time 0, 4, 8, 16, 24, or 36 hours. […]
as §2

[3] = system: A549 lung carcinoma cells; test: In vitro growth inhibition, A549; format: cell-based; conditions: human A549
Description: as §1, §2

[4] = system: HeLa cervical cancer cells; test: In vitro growth inhibition, HeLa; format: cell-based; conditions: Homo sapiens
Description: as §1, §2

K562 leukemia cells = test: In vitro growth inhibition, K562; format: cell-based, human; conditions: Homo sapiens, 50% of vehicle control cell growth
Description: as §1, §2

[5] = system: LLC (Lewis Lung Carcinoma) cells; test: In vitro growth inhibition, LLC; format: cell-based; conditions: mouse LLC
Description: as §1, §2

[6] = system: MDA-MB231 breast adenocarcinoma cells; test: In vitro growth inhibition, MDA-MB231; format: cell-based; conditions: Homo sapiens, MDA-MB-231
Description: as §1, §2

[7] = system: PFKFB3 over-expressing Jurkat cells; test: Growth inhibition of Jurkat cells over-expressing PFKFB3 (Tet-ON, doxycycline); format: cell-based; conditions: Homo sapiens, 48 hours
Description: as §3
FLAG-PFKFB3 containing the complete PFKFB3 coding sequence and FLAG-epitope at its N-terminus was subcloned into the BamHI/HindIII restriction sites within the retroviral Tet response vector pRevTRE (Clontech, Mountain View, Calif., United States of America). Recombinant retrovirus was produced by Lipofectamine-mediated (Invitrogen, Carlsbad, Calif., United States of America) transfection of the pRevTRE-FLAG-PFKFB3 construct into PT67 packaging cell lines. […]
as §2

## O=C(/C=C/c1cccnc1)c1ccncc1 [Compound 1, 3-(3-pyridinyl)-1-(4-pyridinyl)-2-propen-1-one]
[1]
  IC50: 15 µM
HL-60 leukemia cells
  IC50: 4.5 µM
Jurkat leukemia cells
  IC50: 1.4 µM
[2]
  IC50: 8.9 µM
[3]
  IC50: 24 µM
[4]
  IC50: 24 µM
K562 leukemia cells
  IC50: 3.2 µM
[5]
  IC50: 19 µM
[6]
  IC50: 4.7 µM
[7]
  IC50: 19.3 µM
